# Assay results from US20100099642A1, “TGF-BETA STIMULANT AND FURTHER AGENT TO REDUCE SIDE EFFECTS” (TCP Innovations Limited, priority 2007, published 2010).
# Marks after values point to notes of the source that are not given here.
# Tested on: anti-collagen type II antibodies
# Assay: direct ELISA for anti-collagen type II antibodies in serum of collagen-induced arthritis mice
# Type: in vivo, mouse
# Details: day 39, TMX 1 mg/kg/day, aspirin 30 mg/kg/day
# Description: (1980) Nature 283:666-8). Adult (12 week old) male DBA/1 mice were divided into groups of six animals. […] Foodpad thickness was determined each day using a digital caliper EC1507 (Moore & Wright) accurate to 0.01 mm. The thickness of each footpad was determined three times on each day by a single operator blind to the treatment condition of the mouse, and the footpad thickness of each mouse on each day was reported as the mean for the three measurements for all four paws. Errors represent the standard error of the mean among the six animals in each group. A direct ELISA for anti-collagen type II antibodies was used as an alternative assessment of the autoimmune response.
smiles,measurement,setting,value
CC/C(=C(\c1ccccc1)c1ccc(OCCN(C)C)cc1)c1ccccc1 [Tamoxifen],"Pan IgG against bovine collagen II, median concentration in serum",,181 µg/mL
same,"IgG1 against bovine collagen II, median absorbance from the direct ELISA",neat serum,<0.05*
same,"IgG2a against bovine collagen II, median absorbance from the direct ELISA",neat serum,0.081*
same,"IgG2b against bovine collagen II, median absorbance from the direct ELISA",neat serum,0.482*
same,"IgG3 against bovine collagen II, median absorbance from the direct ELISA",neat serum,0.069*
